Values belong to the molecule of their own block, whether it stands above or below them. Peptide text beside a SMILES is read from it.
Assays:
Assay type in all cases: functional, cell-based
[1] = biological target: T1, Solute carrier family 15 member 1 (Homo sapiens) (UniProt P46059); assay: TP_TRANSPORTER: inhibition of fMLP uptake (fMLP: 0.12 uM, Gly-Leu: 10000 uM) in Xenopus laevis oocytes; conditions: Oocyte
T1 sequence (whole entry): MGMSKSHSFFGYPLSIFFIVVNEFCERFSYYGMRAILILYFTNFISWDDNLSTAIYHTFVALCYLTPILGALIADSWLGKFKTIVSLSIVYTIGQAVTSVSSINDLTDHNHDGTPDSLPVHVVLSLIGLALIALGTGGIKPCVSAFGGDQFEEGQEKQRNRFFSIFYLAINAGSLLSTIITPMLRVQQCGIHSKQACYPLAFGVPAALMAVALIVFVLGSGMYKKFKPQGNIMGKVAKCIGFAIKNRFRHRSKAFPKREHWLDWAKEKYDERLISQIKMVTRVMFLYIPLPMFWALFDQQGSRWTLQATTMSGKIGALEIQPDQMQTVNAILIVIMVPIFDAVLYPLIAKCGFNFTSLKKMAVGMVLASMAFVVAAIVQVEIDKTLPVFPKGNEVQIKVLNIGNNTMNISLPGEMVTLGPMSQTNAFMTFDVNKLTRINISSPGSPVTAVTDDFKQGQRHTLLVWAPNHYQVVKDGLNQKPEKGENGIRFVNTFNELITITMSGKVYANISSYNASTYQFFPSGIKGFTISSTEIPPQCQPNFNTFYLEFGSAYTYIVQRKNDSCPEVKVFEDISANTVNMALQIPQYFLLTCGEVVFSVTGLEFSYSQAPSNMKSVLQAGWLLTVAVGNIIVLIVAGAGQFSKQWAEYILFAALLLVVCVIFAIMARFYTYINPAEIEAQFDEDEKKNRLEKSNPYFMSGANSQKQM

[2] = biological target: T1, Solute carrier family 15 member 1 (Homo sapiens); assay: TP_TRANSPORTER: inhibition of fMLP uptake (fMLP: 0.1 uM, Gly-Leu: 10000 uM) in Caco-2 cells
[3] = biological target: T1, Solute carrier family 15 member 1 (Homo sapiens); assay: TP_TRANSPORTER: inhibition of Gly-Sar uptake (Gly-Sar: 100 uM, fMLP: 1000 uM) in Xenopus laevis oocytes; conditions: Oocyte
[4] = biological target: T1, Solute carrier family 15 member 1 (Homo sapiens); assay: TP_TRANSPORTER: uptake in Xenopus laevis oocytes; conditions: Oocyte
[5] = biological target: T1, Solute carrier family 15 member 1 (Homo sapiens); assay: TP_TRANSPORTER: inhibition of fMLP uptake (fMLP: 0.1 uM, Gly-Pro: 10000 uM) in Caco-2 cells
[6] = biological target: T1, Solute carrier family 15 member 1 (Homo sapiens); assay: TP_TRANSPORTER: inhibition of fMLP uptake (fMLP: 0.1 uM, Carnosine: 10000 uM) in Caco-2 cells

Activity [1]: inhibitor [+] | inhibition [2]: 93%
SMILES: CC(C)C[C@H](NC(=O)CN)C(=O)O

inhibition [3]: 88% | Activity [4]: substrate [+]
SMILES: CSCC[C@H](NC=O)C(=O)N[C@@H](CC(C)C)C(=O)N[C@@H](Cc1ccccc1)C(=O)O

inhibition [5]: 78%
SMILES: NCC(=O)N1CCC[C@H]1C(=O)O (H-Gly-Pro-OH)

inhibition [6]: 93%
SMILES: NCCC(=O)N[C@@H](Cc1c[nH]cn1)C(=O)O

Reference: ChEMBL document CHEMBL2074327, “hPepT1-mediated epithelial transport of bacteria-derived chemotactic peptides enhances neutrophil-epithelial interactions” (J Clin Invest, 1998)
